Assay results reported in patent US20240352000A1, “NOVEL PYRIMIDINE-2,4-DIAMINE DERIVATIVES, PREPARATION METHOD THEREFOR, AND PHARMACEUTICAL COMPOSITION CONTAINING SAME AS ACTIVE INGREDIENT FOR PREVENTION OR TREATMENT OF CANCER” (KOREA RESEARCH INSTITUTE OF CHEMICAL TECHNOLOGY, priority 2021, published 2024).

How the values were obtained:
[1] = system: Ba/F3 EGFR del19/T790M/C797S; assay: CellTiter-Glo cell viability, Ba/F3 EGFR del19/T790M/C797S; format: cell-based; settings: 72 hours
Description: (§1) An experiment to measure the activity of the compounds of the present invention against the mutant Ba/F3 EGFR cell line was performed as follows using the CellTiter-Glo system sold by Promega. The CellTiter-Glo assay is a method to confirm the cell viability by measuring ATP present in cells in cell culture. For the Ba/F3 EGFR del19, Ba/F3 EGFR del19/T790M, Ba/F3 del19/T790M/C797S mutant cell line, a cell line provided by Crown Bioscience was purchased and used. The Ba/F3 EGFR del19, Ba/F3 EGFR del19/T790M, Ba/F3 del19/T790M/C797S mutant cell line was cultured in RPMI containing 10% FBS and 1% penicillin-streptomycin with 1 μg of puromycin in an incubator at 37° C. and 5% CO2.
(§2) Analysis of the inhibitory ability effect of the compounds against EGFR was conducted according to the following analysis reaction recipe.
(§3) 2500 cells/90 μL were passaged and cultured in a 96-well cell culture plate, and after 24 hours, treated with the compound represented by Formula 1 at a concentration of 0, 0.01, 0.03, 0.1, 0.3, 1, 3, and 10 (μM). After reaction for 72 hours, the plate treated with the compound was left at room temperature for 30 minutes, then further treated with 100 μl of reagent, and shaken at room temperature for 10 minutes. Finally, the ratio of fluorescence values at 570 nm was obtained using the equipment to quantitatively measure and confirmed the inhibitory ability of the compounds. The measurement values measured at eight compound concentrations were analyzed using the Prism program (version 5.01, Graphpad Software, Inc.), and the IC50 value, which is an indicator of the inhibitory ability of the compound, was calculated.

Ba/F3 EGFR L858R/T790M = assay: CellTiter-Glo cell viability, Ba/F3 EGFR L858R/T790M; format: cell-based; settings: 72 hours
Description: (§4) An experiment to measure the activity of the compounds of the present invention against the mutant Ba/F3 EGFR cell line was performed as follows using the CellTiter-Glo system sold by Promega. The CellTiter-Glo assay is a method to confirm the cell viability by measuring ATP present in cells in cell culture. The Ba/F3 EGFR L858R, Ba/F3 EGFR L858R/T790M, Ba/F3 EGFR L858R/T790M/C797S mutant cell line was used. The Ba/F3 EGFR L858R, Ba/F3 EGFR L858R/T790M, and Ba/F3 EGFR L858R/T790M/C797S mutant cell lines was cultured in RPMI containing 10% FBS and 1% penicillin-streptomycin with 1 μg of puromycin in an incubator at 37° C. and 5% CO2.
as §2
as §3, with “μl” for “μL”

Ba/F3 EGFR del19 = assay: CellTiter-Glo cell viability, Ba/F3 EGFR del19; format: cell-based; settings: 72 hours
Description: as §1, §2, §3

Ba/F3 EGFR del19/T790M = assay: CellTiter-Glo cell viability, Ba/F3 EGFR del19/T790M; format: cell-based; settings: 72 hours
Description: as §1, §2, §3

Ba/F3 EGFR L858R = assay: CellTiter-Glo cell viability, Ba/F3 EGFR L858R; format: cell-based; settings: 72 hours
Description: as §4, §2
as §3, with “μl” for “μL”

EGFR del19/T790M = EGFR del19/T790M (Homo sapiens (Human), UniProt P00533, DEL746-750/T790M); assay: HTRF enzyme assay, EGFR del19/T790M mutant enzyme; format: biochemical; settings: recombinant enzyme, 37° C. 2 hours
Sequence of EGFR del19/T790M (P00533 other isoform, or with tags, fused parts or gaps T790M/del 1-668/del 746-750 limits assumed): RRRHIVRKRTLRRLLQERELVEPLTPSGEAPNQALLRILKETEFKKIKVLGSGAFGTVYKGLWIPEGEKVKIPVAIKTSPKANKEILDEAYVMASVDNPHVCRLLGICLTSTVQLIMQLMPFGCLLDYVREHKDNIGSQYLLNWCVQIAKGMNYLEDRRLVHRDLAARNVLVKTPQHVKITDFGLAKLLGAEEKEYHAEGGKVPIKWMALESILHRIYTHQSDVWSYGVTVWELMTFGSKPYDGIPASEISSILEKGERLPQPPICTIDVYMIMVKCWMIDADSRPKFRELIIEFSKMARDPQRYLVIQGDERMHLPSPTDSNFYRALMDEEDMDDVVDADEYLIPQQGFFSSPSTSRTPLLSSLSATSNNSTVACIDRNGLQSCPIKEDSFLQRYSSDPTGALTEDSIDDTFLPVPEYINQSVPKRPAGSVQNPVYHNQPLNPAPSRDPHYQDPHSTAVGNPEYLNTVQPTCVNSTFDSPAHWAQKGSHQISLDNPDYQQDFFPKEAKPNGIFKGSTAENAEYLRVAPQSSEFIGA
Description: (§5) An experiment to measure the activity of the compounds of the present invention against EGFR mutant enzymes was performed as follows using the HTRF system sold by Cisbio. For the EGFR del19/T790M mutant enzyme, a recombinant protein provided by Carna Biosciences was purchased and used, and for the EGFR del19/T790M/C797S mutant enzyme, a protein provided by SignalChem was purchased and used as an enzyme source.
(§6) The composition of the assay buffer used for measuring the activity was 50 mM Tris-HCl pH 7.5, 100 mM NaCl, 7.5 mM MgCl2, 3 mM KCl, 0.01% Tween 20, 0.1% BSA, and 1 mM DTT. Here, an enzyme reaction was performed using ATP at a concentration of […] and a peptide substrate labeled with biotin at a concentration of […]. Analysis of the inhibitory effect of the compounds against the EGFR activity was conducted according to the following analysis reaction recipe. • Component 1: 4 μL of an EGFR mutant enzyme • Component 2: 2 μL of a compound solution • Component 3: 4 μL of ATP and a peptide labeled with biotin
(§7) The enzyme reaction was started by first mixing Component 1 and Component 2 and then adding Component 3. After reaction at 37° C. for 2 hours, […] of measurement solution consisting of streptavidin-XL665 and europium-labeled anti-phosphotyrosine antibody provided by Cisbio was added to the enzyme reaction solution and reacted at room temperature for 1 hour. Finally, the ratio of fluorescence values at 615 nm and 665 nm was obtained using the Envision equipment from Perkin-Elmer to quantitatively measure the enzyme activity and confirmed the inhibitory ability of the compounds. The measurement values measured at seven compound concentrations were analyzed using the Prism program (version 5.01, Graphpad Software, Inc.), and the IC50 value, which is an indicator of the inhibitory ability of the compound, was calculated.

EGFR del19/T790M/C797S = EGFR del19/T790M/C797S (Homo sapiens (Human), UniProt P00533, C797S/DEL746-750/T790M); assay: HTRF enzyme assay, EGFR del19/T790M/C797S mutant enzyme; format: biochemical; settings: enzyme from SignalChem, 37° C. 2 hours
Sequence of EGFR del19/T790M/C797S (P00533 other isoform, or with tags, fused parts or gaps T790M/C797S/del 1-694/del 746-750 limits assumed): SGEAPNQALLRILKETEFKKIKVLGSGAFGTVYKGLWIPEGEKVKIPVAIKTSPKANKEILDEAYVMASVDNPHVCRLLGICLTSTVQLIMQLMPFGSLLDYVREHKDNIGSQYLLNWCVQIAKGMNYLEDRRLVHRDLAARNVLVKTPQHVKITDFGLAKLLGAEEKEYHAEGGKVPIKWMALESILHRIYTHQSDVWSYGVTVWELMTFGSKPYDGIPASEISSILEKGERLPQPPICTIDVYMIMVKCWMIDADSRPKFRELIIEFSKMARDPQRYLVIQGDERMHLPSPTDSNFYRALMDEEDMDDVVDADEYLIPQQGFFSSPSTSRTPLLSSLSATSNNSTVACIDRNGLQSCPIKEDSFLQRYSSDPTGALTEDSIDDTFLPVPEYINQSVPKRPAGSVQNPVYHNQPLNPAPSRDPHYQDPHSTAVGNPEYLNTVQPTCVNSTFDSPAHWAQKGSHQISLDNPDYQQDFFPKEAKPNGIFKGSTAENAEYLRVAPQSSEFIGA
Description: as §5, §6, §7

[2] = system: Ba/F3 EGFR L858R/T790M/C797S; assay: CellTiter-Glo cell viability, Ba/F3 EGFR L858R/T790M/C797S; format: cell-based; settings: 72 hours
Description: as §4, §2
as §3, with “μl” for “μL”

| IC50 [1] | IC50 (Ba/F3 EGFR L858R/T790M) | IC50 (Ba/F3 EGFR del19) | IC50 (Ba/F3 EGFR del19/T790M) | IC50 (Ba/F3 EGFR L858R) | IC50 (EGFR del19/T790M) | IC50 (EGFR del19/T790M/C797S) | IC50 [2] | SMILES |
| --- | --- | --- | --- | --- | --- | --- | --- | --- |
| > 100 nM | > 100 nM | < 100 nM | < 100 nM | > 100 nM | – | – | – | COc1cc(N(C)CCN(C)C)ccc1Nc1ncc(Cl)c(Nc2cccc3c2N(S(C)(=O)=O)CC3)n1 [Example 3, 5-chloro-N2-(4-((2-(dimethylamino)ethyl)(methyl)amino)-2-methoxyphenyl)-N4-(1-(methylsulfonyl)indolin-7-yl)pyrimidine-2,4-diamine] |
| > 100 nM | < 100 nM | < 100 nM | < 100 nM | > 100 nM | 1 nM | < 1 nM | – | COc1cc(N(C)CCN(C)C)ccc1Nc1ncc(Cl)c(Nc2cccc3c2N(S(C)(=O)=O)CCC3)n1 [Example 6, 5-chloro-N2-(4-((2-(dimethylamino)ethyl)(methyl)amino)-2-methoxyphenyl)-N4-(1-(methylsulfonyl)-1,2,3,4-tetrahydroquinolin-8-yl)pyrimidine-2,4-diamine] |
| > 100 nM | > 100 nM | > 100 nM | > 100 nM | < 100 nM | 60 nM | 50 nM | > 100 nM | COc1cc(N2CCC(N3CCN(C)CC3)CC2)ccc1Nc1ncc(C(=O)OC(C)C)c(Nc2cccc3c2N(S(C)(=O)=O)CC3)n1 [Example 10, isopropyl 2-((2-methoxy-4-(4-(4-methylpiperazin-1-yl)piperidin-1-yl)phenyl)amino)-4-((1-(methylsulfonyl)indolin-7-yl)amino)pyrimidine-5-carboxylate] |
| > 100 nM | < 100 nM | < 100 nM | > 100 nM | < 30 nM | < 1 nM | < 1 nM | > 100 nM | COc1cc(N2CCC(N3CCN(C)CC3)CC2)ccc1Nc1ncc(F)c(Nc2cccc3c2N(S(C)(=O)=O)CC3)n1 [Example 8, 5-fluoro-N2-(2-methoxy-4-(4-(4-methylpiperazin-1-yl)piperidin-1-yl)phenyl)-N4-(1-(methylsulfonyl)indolin-7-yl)pyrimidine-2,4-diamine] |
| > 100 nM | < 100 nM | < 100 nM | > 100 nM | < 100 nM | 2 nM | 5 nM | > 100 nM | COC(=O)c1cnc(Nc2ccc(N3CCC(N4CCN(C)CC4)CC3)cc2OC)nc1Nc1cccc2c1N(S(C)(=O)=O)CC2 [Example 11, methyl 2-((2-methoxy-4-(4-(4-methylpiperazin-1-yl)piperidin-1-yl)phenyl)amino)-4-((1-(methylsulfonyl)indolin-7-yl)amino)pyrimidine-5-carboxylate] |
| < 100 nM | < 30 nM | < 30 nM | < 30 nM | < 30 nM | < 1 nM | < 1 nM | < 100 nM | COc1cc(N2CCC(N(C)C)CC2)ccc1Nc1ncc(Cl)c(Nc2cccc3c2N(S(C)(=O)=O)CC3)n1 [Example 1, 5-chloro-N2-(4-(4-(dimethylamino)piperidin-1-yl)-2-methoxyphenyl)-N4-(1-(methylsulfonyl)indolin-7-yl)pyrimidine-2,4-diamine] |
| > 100 nM | < 30 nM | < 30 nM | < 30 nM | < 100 nM | < 1 nM | < 1 nM | > 100 nM | COc1cc(N2CCC(N3CCN(C)CC3)CC2)ccc1Nc1ncc(C(F)(F)F)c(Nc2cccc3c2N(S(C)(=O)=O)CC3)n1 [Example 9, N2-(2-methoxy-4-(4-(4-methylpiperazin-1-yl)piperidin-1-yl)phenyl)-N4-(1-(methylsulfonyl)indolin-7-yl)-5-(trifluoromethyl)pyrimidine-2,4-diamine] |
| > 100 nM | < 100 nM | < 30 nM | < 100 nM | < 30 nM | < 1 nM | < 1 nM | > 100 nM | COc1cc(N2CCC(N3CCN(C)CC3)CC2)ccc1Nc1ncc(C)c(Nc2cccc3c2N(S(C)(=O)=O)CC3)n1 [Example 7, N2-(2-methoxy-4-(4-(4-methylpiperazin-1-yl)piperidin-1-yl)phenyl)-5-methyl-N4-(1-(methylsulfonyl)indolin-7-yl)pyrimidine-2,4-diamine] |
| < 30 nM | < 100 nM | < 30 nM | < 30 nM | < 100 nM | < 1 nM | < 1 nM | – | COc1cc(N2CCC(N(C)C)CC2)ccc1Nc1ncc(Cl)c(Nc2cccc3c2N(S(C)(=O)=O)CCC3)n1 [Example 4, 5-chloro-N2-(4-(4-(dimethylamino)piperidin-1-yl)-2-methoxyphenyl)-N4-(1-(methylsulfonyl)-1,2,3,4-tetrahydroquinolin-8-yl)pyrimidine-2,4-diamine] |
